Measurements: patent US11077100B2, “Tetrahydroquinoline derivatives as P2X7 receptor antagonists” (RaQualia Pharma Inc., priority 2017, dated 2021)

Target: human P2X7 (Homo sapiens (Human), UniProt Q99572)
Assay: Human P2X7 functional assay (Ca2+ influx, Fluo-4, FDSS)
Format: cell-based
Conditions: antagonistic activity with respect to the human P2X7 receptor; BzATP final concentration 80 microM
Experimental: The ability of the 5,6,7,8-tetrahydroquinoline and 6,7-dihydro-5H-cyclopenta[b]pyridine derivatives of the formula (I) to inhibit the P2X7 channel was measured by Ca^2+ influx assay and electrophysiology assay described below.
Human P2X7 Functional Assay
The functional activity of compounds was determined by measuring changes in intracellular calcium concentration using a Ca^2+-sensitive fluorescent dye, Fluo-4 (Molecular Probes). The changes in fluorescent signal were monitored by the cell imaging technology by Hamamatsu Photonics's Functional Drug Screening System (FDSS). Increases in intracellular Ca^2+ concentration were readily detected upon activation with BzATP.
HEK293 cells stably expressing human P2X7 (GenBank accession number BC011913) carrying a C-terminal FLAG tag were grown in T225 flasks, in a 5% CO2 humidified incubator to about 80% confluence. Media composition consisted of Dulbecco's Modified Eagle Medium (high glucose), 10% fetal bovine serum ([…]), 100 units/[…] Penicillin, 100 microg/mL Streptomycin and 250 microg/mL Geneticine.
1. Plate-out HEK293-human P2X7 cells (40 microL medium containing 10,000 cells per well) into poly-D-lysine coated 384-well plates (Corning) at 24 h prior to assay.
2. Incubate at 37° C. in 5% CO2.
3. Incubate the plate at 37° C. in 5% CO2 for 1 h.
5. Test compounds were prepared at 100× the test concentration in DMSO by serial dilution with Biomek-FX liquid handling instrument. 33× diluted compound solutions in assay buffer were prepared in intermediate compound plate with Biomek-NX liquid handling instrument. A further 3× dilution occurred in below steps 6 and 7.
6. Add 20 microL of 33× diluted compound solutions into each well and leave the plate for 10 min under the dark at room temperature.
7. Measure activity by FDSS as follows: • Set the assay plate on the stacker of FDSS. • Start the detection of fluorescence intensity at 540 nm by 480 nm exicitation. • After 30 seconds, add 20 microL of assay buffer containing 240 microM BzATP (final concentration 80 microM).
IC50 values for compounds of the present invention were determined from 7-point dose-response studies. Curves were generated using the average of duplicate wells for each data point. Finally, the IC50 values are calculated with the best-fit dose curve determined by XLfit (ID Business Solutions Ltd.).

Chain of human P2X7 (Q99572 whole entry): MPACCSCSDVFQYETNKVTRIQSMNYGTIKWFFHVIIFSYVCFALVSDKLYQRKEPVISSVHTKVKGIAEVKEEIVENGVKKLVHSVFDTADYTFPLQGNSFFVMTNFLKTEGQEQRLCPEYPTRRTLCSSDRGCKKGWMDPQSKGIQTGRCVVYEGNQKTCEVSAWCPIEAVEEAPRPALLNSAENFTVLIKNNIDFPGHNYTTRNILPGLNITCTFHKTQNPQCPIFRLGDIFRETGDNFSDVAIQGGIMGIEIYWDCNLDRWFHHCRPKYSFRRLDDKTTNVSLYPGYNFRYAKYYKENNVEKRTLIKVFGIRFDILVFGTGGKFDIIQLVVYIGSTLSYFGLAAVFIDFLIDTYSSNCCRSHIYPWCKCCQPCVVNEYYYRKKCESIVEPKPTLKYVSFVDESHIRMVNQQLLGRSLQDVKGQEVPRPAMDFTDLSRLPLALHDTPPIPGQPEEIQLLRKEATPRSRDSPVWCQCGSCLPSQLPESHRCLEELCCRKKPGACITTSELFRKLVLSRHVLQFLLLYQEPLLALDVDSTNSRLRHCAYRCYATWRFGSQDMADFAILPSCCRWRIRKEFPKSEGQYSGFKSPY

SMILES	IC50
O=C(NCc1nc(-c2ccc(Cl)cc2)cs1)[C@]1(F)CC[C@H](O)c2ncccc21 [Example 213, (5S,8S)-N-((4-(4-chlorophenyl)thiazol-2-yl)methyl)-5-fluoro-8-hydroxy-5,6,7,8-tetrahydroquinoline-5-carboxamide]	101 to 300 nM
O=C(NCc1ccccc1CN1CCOCC1)[C@]1(F)CC[C@H](O)c2ncccc21 [Example 214, (5S,8S)-5-fluoro-8-hydroxy-N-(2-(morpholinomethyl)benzyl)-5,6,7,8-tetrahydroquinoline-5-carboxamide]	101 to 300 nM
Cc1ccc(Cl)c(CNC(=O)[C@]2(F)CC[C@H](O)c3ncccc32)c1F [Example 216, (5S,8S)-N-(6-chloro-2-fluoro-3-methylbenzyl)-5-fluoro-8-hydroxy-5,6,7,8-tetrahydroquinoline-5-carboxamide]	101 to 300 nM
O=C(NCc1c(F)cccc1F)[C@]1(F)CC[C@H](O)c2ncccc21 [Example 217, (5S,8S)-N-(2,6-difluorobenzyl)-5-fluoro-8-hydroxy-5,6,7,8-tetrahydroquinoline-5-carboxamide]	101 to 300 nM
O=C(NCCOc1cccc(C(F)(F)F)c1)[C@]1(F)CC[C@H](O)c2ncccc21 [Example 219]	301 to 1000 nM
O=C(NCC1(c2ccc(F)cc2)CC1)[C@]1(F)CC[C@H](O)c2ncccc21 [Example 220, (5S,8S)-5-fluoro-N-((1-(4-fluorophenyl)cyclopropyl)methyl)-8-hydroxy-5,6,7,8-tetrahydroquinoline-5-carboxamide]	301 to 1000 nM
O=C(NCc1ccccc1F)[C@]1(F)CC[C@H](O)c2ncccc21 [Example 223, (5S,8S)-5-fluoro-N-(2-fluorobenzyl)-8-hydroxy-5,6,7,8-tetrahydroquinoline-5-carboxamide]	301 to 1000 nM
O=C(N[C@H]1CCC[C@@H]1OCc1ccccc1)[C@]1(F)CC[C@H](O)c2ncccc21 [Example 225, (5S,8S)-N-((1S,2S)-2-(benzyloxy)cyclopentyl)-5-fluoro-8-hydroxy-5,6,7,8-tetrahydroquinoline-5-carboxamide]	301 to 1000 nM
O=C(N[C@H]1CCc2ccccc21)[C@]1(F)CC[C@H](O)c2ncccc21 [Example 226, (5S,8S)-N-((S)-2,3-dihydro-1H-inden-1-yl)-5-fluoro-8-hydroxy-5,6,7,8-tetrahydroquinoline-5-carboxamide]	1000 to 3000 nM
CC(C)(C)CCNC(=O)[C@]1(F)CC[C@H](O)c2ncccc21 [Example 227, (5S,8S)-N-(3,3-dimethylbutyl)-5-fluoro-8-hydroxy-5,6,7,8-tetrahydroquinoline-5-carboxamide]	1000 to 3000 nM
Cc1cnc2c(c1)[C@](F)(C(=O)NCc1ccc(F)cc1Cl)CC[C@@H]2O [Example 244, (5S,8S)-N-(2-chloro-4-fluorobenzyl)-5-fluoro-8-hydroxy-3-methyl-5,6,7,8-tetrahydroquinoline-5-carboxamide]	1000 to 3000 nM
O=C1CC[C@@](F)(C(=O)NCc2ncc(Cl)cc2Cl)c2cccnc21 [Example 255, (S)-N-((3,5-dichloro-pyridin-2-yl)methyl)-5-fluoro-8-oxo-5,6,7,8-tetrahydroquinoline-5-carboxamide]	101 to 300 nM
C[C@@]1(O)CC[C@@](F)(C(=O)NCC2(N3CCOCC3)CCCCC2)c2cccnc21 [Example 275, (5S,8R)-5-fluoro-8-hydroxy-8-methyl-N-((1-morpholinocyclohexyl)methyl)-5,6,7,8-tetrahydroquinoline-5-carboxamide]	1000 to 3000 nM
CN(CCO)C[C@@]1(O)CC[C@](F)(C(=O)NCc2ccc(Cl)cc2Cl)c2cccnc21 [Example 278, (5R,8S)-N-(2,4-dichlorobenzyl)-5-fluoro-8-hydroxy-8-(((2-hydroxyethyl) (methyl)amino)methyl)-5,6,7,8-tetrahydroquinoline-5-carboxamide]	1000 to 3000 nM
O=C(NC1CC1c1ccc(Cl)cc1Cl)[C@]1(F)CC[C@@](O)(CO)c2ncccc21 (stereo partly drawn) [Example 331, (5S,8S)-N-((trans)-2-(2,4-dichlorophenyl)cyclopropyl)-5-fluoro-8-hydroxy-8-(hydroxymethyl)-5,6,7,8-tetrahydroquinoline-5-carboxamide]	50 to 100 nM
O=C(NCC1(c2ccc(Cl)cc2Cl)CCOCC1)[C@]1(F)CC[C@@](O)(CO)c2ncccc21 [Example 332, (5S,8S)-N-((4-(2,4-dichlorophenyl)tetrahydro-2H-pyran-4-yl)methyl)-5-fluoro-8-hydroxy-8-(hydroxymethyl)-5,6,7,8-tetrahydroquinoline-5-carboxamide]	1000 to 3000 nM
O=C(NCc1ccc(Cl)cc1Cl)[C@@]1(F)CC[C@@H](OCCO)c2ncccc21 [Example 348, (5R,8R)-N-(2,4-dtchlorobenzyl)-5-fluoro-8-(2-hydroxyethoxy)-5.6,7,8-tetrahydroquinoline-5-carboxamide]	101 to 300 nM

The remaining lines, values ahead:

IC50	SMILES
101 to 300 nM	O=C(N[C@H]1C[C@@H]1c1ccccc1)[C@]1(F)CC[C@H](O)c2ncccc21 [Example 215, (5S,8S)-5-fluoro-8-hydroxy-N-((1S,2R)-2-phenylcyclopropyl)-5,6,7,8-tetrahydroquinoline-5-carboxamide]
301 to 1000 nM	O=C(N[C@H]1CCCc2ccccc21)[C@]1(F)CC[C@H](O)c2ncccc21 [Example 218, (5S,8S)-5-fluoro-8-hydroxy-N-((S)-1,2,3,4-tetrahydronaphthalen-1-yl)-5,6,7,8-tetrahydroquinoline-5-carboxamide]
301 to 1000 nM	O=C(N[C@@H]1C[C@H]1c1ccccc1)[C@]1(F)CC[C@H](O)c2ncccc21 [Example 222, (5S,8S)-5-fluoro-8-hydroxy-N-((1R,2S)-2-phenylcyclopropyl)-5,6,7,8-tetrahydroquinoline-5-carboxamide]
301 to 1000 nM	COc1cccc(CNC(=O)[C@]2(F)CC[C@H](O)c3ncccc32)c1Cl [Example 224, (5S,8S)-N-(2-chloro-3-methoxybenzyl)-5-fluoro-8-hydroxy-5,6,7,8-tetrahydroquinoline-5-carboxamide]
1000 to 3000 nM	O=C(NCCOc1ccccc1)[C@]1(F)CC[C@H](O)c2ncccc21 [Example 228, (5S,8S)-5-fluoro-8-hydroxy-N-(2-phenoxyethyl)-5,6,7,8-tetrahydroquinoline-5-carboxamide]
1000 to 3000 nM	Cc1ncsc1C(CNC(=O)[C@]1(F)CC[C@H](O)c2ncccc21)N1CCC(F)(F)CC1 (stereo partly drawn) [Example 236, (5S,8S)-N-(2-(4,4-difluoropiperidin-1-yl)-2-(4-methylthiazol-5-yl)ethyl)-5-fluoro-8-hydroxy-5,6,7,8-tetrahydroquinoline-5-carboxamide]
301 to 1000 nM	Cc1cnc2c(c1)[C@](F)(C(=O)NCc1ccc(Cl)cc1Cl)CC[C@@H]2O [Example 243, (5S,8S)-N-(2,4-dichlorobenzyl)-5-fluoro-8-hydroxy-3-methyl-5,6,7,8-tetrahydroquinoline-5-carboxamide]
301 to 1000 nM	C[C@H](NC(=O)[C@]1(F)CC[C@](C)(O)c2ncccc21)c1ccc(F)cc1Cl [Example 271, (5S,8S)-N-((S)-1-(2-chloro-4-fluorophenyl)ethyl)-5-fluoro-8-hydroxy-8-methyl-5,6,7,8-tetrahydroquinoline-5-carboxamide]
301 to 1000 nM	Cc1cnc2c(c1)[C@](F)(C(=O)NCc1ccc(F)cc1Cl)CC[C@]2(C)O [Example 276, (5S,8S)-N-(2-chloro-4-fluorobenzyl)-5-fluoro-8-hydroxy-3,8-dimethyl-5,6,7,8-tetrahydroquinoline-5-carboxamide]
1000 to 3000 nM	O=C1CO[C@@]2(CC[C@](F)(C(=O)NCc3ccc(Cl)cc3Cl)c3cccnc32)CN1 [Example 293, (2S,5′R)-N-(2,4-dichlorobenzyl)-5′-fluoro-5-oxo-6′,7′-dihydro-5′H-spiro [morpholine-2,8′-quinoline]-5′-carboxamide]
1000 to 3000 nM	Cc1cnc2c(c1)[C@](F)(C(=O)NCc1ccc(Cl)cc1Cl)CC[C@@]2(O)CO [Example 325, (5S,8S)-N-(2,4-dichlorobenzyl)-5-fluoro-8-hydroxy-8-(hydroxymethyl)-3-methyl-5,6,7,8-tetrahydroquinoline-5-carboxamide]
301 to 1000 nM	O=C(NCCc1ccc(Cl)cc1Cl)[C@]1(F)CC[C@@](O)(CO)c2ncccc21 [Example 330, (5S,8S)-N-(2,4-dichlorophenethyl)-5-fluoro-8-hydroxy-8-(hydroxymethyl)-5,6,7,8-tetrahydroquinoline-5-carboxamide]
50 to 100 nM	O=C(NCc1ccc(Cl)cc1Cl)[C@@]1(F)CC[C@H](F)c2ncccc21 [Example 353, (5R,8S)-N-(2,4-dichlorobenzyl)-5,8-difluoro-5,6,7,8-tetrahydroquinoline-5-carboxamide]
